Test results as given in patent US20130210664A1, “Methods for the Identification of Methyltransferase Interacting Molecules and for the Purification of Methyltransferase Proteins” (Cellzome AG, priority 2010, published 2013).

What was measured:
Experiment in all cases: Competition binding bead assay with immobilized compound 6 in cell lysate, iTRAQ LC-MS/MS quantitation
SETD7 = molecular target: T1, SETD7 (Homo sapiens, UniProt Q8WTS6); conditions: SETD7 (IPI00028366.2); 200 μM free compound 6; mixed Jurkat and Ramos cell lysates; versus DMSO solvent control
T1 construct: endogenous in cells; host or cells: Jurkat (ATCC TIB-152) and Ramos (ATCC CRL-1596) cells, mixed lysate
T1 sequence (Q8WTS6 1-366): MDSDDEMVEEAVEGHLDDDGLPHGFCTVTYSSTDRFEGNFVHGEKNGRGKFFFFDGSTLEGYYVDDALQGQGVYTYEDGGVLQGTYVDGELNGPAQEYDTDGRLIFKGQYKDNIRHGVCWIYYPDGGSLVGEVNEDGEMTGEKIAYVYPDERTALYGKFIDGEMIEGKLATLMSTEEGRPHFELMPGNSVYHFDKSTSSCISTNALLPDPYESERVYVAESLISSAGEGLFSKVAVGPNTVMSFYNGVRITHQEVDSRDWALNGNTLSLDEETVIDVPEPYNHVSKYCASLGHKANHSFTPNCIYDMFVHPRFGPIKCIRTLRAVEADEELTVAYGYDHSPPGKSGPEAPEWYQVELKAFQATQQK
Experimental: (§1) To the first aliquot of cell lysate 200 μM of the free compound 6 was added and allowed to bind to proteins in the lysate. Then the affinity matrix with the immobilized compound (Example 1) was added to capture proteins that were not interacting with the previously added free compound. Beads were separated from the lysate and bead bound proteins were eluted in SDS sample buffer and subsequently separated by SDS-Polyacrylamide gel electrophoresis. Suitable gel bands were cut out and subjected to in-gel proteolytic digestion with trypsin. The second lysate aliquot was processed identically, however no free compound was added (DMSO solvent control). Peptides originating from samples 1 and 2 were labeled with iTRAQ reagents (iTRAQ 114 and iTRAQ 116) and the combined samples were analyzed with a nano-flow liquid chromatography system coupled online to a tandem mass spectrometer (LC-MS/MS) experiment followed by iTRAQ reporter ion quantification in the MS/MS spectra (Ross et al., 2004. Mol. Cell. Proteomics 3(12):1154-1169). Further experimental protocols can be found in WO2006/134056 and a previous publication (Bantscheff et al., 2007. Nature Biotechnology 25, 1035-1044).
(§2) The identified methyltransferases are shown in Table 5 including the percent competition values for the sample to which 200 μM free compound had been added. […]

SMYD5 = molecular target: T2, SMYD5 (Homo sapiens, UniProt Q6GMV2); conditions: SMYD5 (IPI00013789.5); 200 μM free compound 6; mixed Jurkat and Ramos cell lysates; versus DMSO solvent control
T2 construct: endogenous in cells; host or cells: Jurkat (ATCC TIB-152) and Ramos (ATCC CRL-1596) cells, mixed lysate
T2 sequence (Q6GMV2 1-418): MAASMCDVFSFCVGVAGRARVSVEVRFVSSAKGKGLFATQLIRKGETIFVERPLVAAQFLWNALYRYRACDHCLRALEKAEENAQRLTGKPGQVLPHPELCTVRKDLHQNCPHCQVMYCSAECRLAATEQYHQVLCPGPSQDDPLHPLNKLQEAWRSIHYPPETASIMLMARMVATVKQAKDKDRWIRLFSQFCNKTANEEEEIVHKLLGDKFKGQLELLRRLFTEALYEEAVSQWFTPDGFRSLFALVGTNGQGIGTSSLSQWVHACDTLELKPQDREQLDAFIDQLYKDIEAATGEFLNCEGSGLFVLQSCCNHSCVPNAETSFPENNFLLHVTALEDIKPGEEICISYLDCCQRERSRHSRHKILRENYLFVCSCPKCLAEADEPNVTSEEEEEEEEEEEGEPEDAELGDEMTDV
Experimental: as §1, §2

DPH5 = test system: DPH5; set-up: species or system human; conditions: 200 μM free compound 6, mixed Jurkat and Ramos cell lysates, versus DMSO solvent control
Experimental: as §1, §2

In the case of `NCCCNc1nc(N)c2ncn([C@@H]3O[C@H](CSCC[C@H](N)C(=O)O)[C@@H](O)[C@H]3O)c2n1` [Compound 6, (S)-2-amino-4-((((2S,3S,4R,5R)-5-(6-amino-2-((3-aminopropyl)amino)-9H-purin-9-yl)-3,4-dihydroxytetrahydrofuran-2-yl)methyl)thio)butanoic acid], the “% Competition” value (SETD7) is reported as 94.1%, the “% Competition” value (SMYD5) is reported as 95.9% and the “% Competition” value (DPH5) is reported as 50.0%.
